The results in this text go back to US12208110B2 (priority 2020, dated 2025).

For data set [1], the system named is RSV-Fluc (Recombinant Respiratory Syncytial virus strain A2 containing the firefly luciferase reporter). The experiment in a line: microbe, parasite or virus in culture. It is filed as cell-based. As to conditions: human respiratory syncytial virus, NHBE, 72 h, read-out: RSV-Fluc EC50 (nM, NHBE).
The next data set deals with SARS-CoV-2. The experiment in a line: microbe, parasite or virus in culture. It is filed as cell-based. As to conditions: Severe acute respiratory syndrome coronavirus 2, 48 h.
The nature of another data set: in vitro. It is filed as cell-based. As to conditions: human. How it is done:
Example 78: A549 Cytotoxicity Analysis
The cytotoxicity of compounds is determined in A549 cells in the following manner. Compounds (40 nL) are spotted onto 384-well Grenier plates prior to seeding 5000 A549 cells/well in a volume of 40 μL culture medium. The plates are incubated at 37° C. for 48 hours with 5% CO2. On day 2, 40 μL of CellTiter-Glo (Promega) is added and mixed 5 times. Plates are read for luminescence on an Envision (PerkinElmer) and the CC50 (compound concentration for reducing 50% of luminescence signal as a measure of cell viability) are calculated using a nonlinear regression model (four parameters). Two experiments are performed with technical duplicates.

Data set [2] in a line: MT4 cytotoxicity analysis (CellTiter-Glo). It is filed as cell-based. Particulars: human, MT4 CC50 (nM). In short, it runs like this:
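MT-4 cells were exposed in quadruplicate to 3-fold serial compound dilutions (DMSO stocks 2.5 uM to 10 mM) for five days at 37 °C. Viability was read by CellTiter-Glo luminescence.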
A general note: Cellular ATP, detected with luciferase, serves as a proxy for viable cell number.

Details of data set [3]: species or system Sprague-Dawley (SD) rats. As to conditions: male, Sprague-Dawley, rat, in vivo, po, 10 mg/kg. How it is done: Example 80: Rat Lung Phosphate (Monophosphate, Diphosphate and Triphosphate) Data with Exemplary Compounds
Measurement of GS-441524 (compound A below) and its phosphorylated metabolites (compounds B, C, and D below) in lung tissues was performed according to the following protocol.
The concentrations of GS-441524 (A) and its phosphorylated metabolites (B, C, and D) were determined in Sprague-Dawley (SD) rats following oral gavage administration of the test compounds. The in-life phase of studies was conducted at Covance Laboratories (Madison, WI). Animals were housed and handled in accordance with the Guide for the Care and Use of Laboratory Animals, Institute of Laboratory Animal Resources. The protocols were reviewed and approved by the Institutional Animal Care and Use Committees (IACUC). Male SD rats weighing approximately 0.3 kg were used for in-life portion of the studies. The animals were fasted overnight prior to the test compound administration and up to 4 hours post-dose. The animals were administered with the test compound at 5, 8, 10 or 20 mg/kg via oral gavage (3 rats per group). The aqueous formulation contains ethanol, dimethyl sulfoxide, Kolliphor HS-15, Labrasol, and propylene glycol. Approximately 0.5 grams of lung tissue samples were collected from each animal and analyzed by LC/MS/MS for determination of the concentrations of GS-441524 and its phosphorylated metabolites. For LC-MS/MS analysis, tissue samples were homogenized and extracted with 4-fold volume of 70% methanol containing 0.1% potassium hydroxide, 67 mM ethylenediamine tetraacetic acid, and internal standard. Approximately 200 μL aliquot of the homogenate was filtered using a 96-well filter plate (0.2 μm polypropylene; Agilent Captiva, Santa Clara, CA). The filtrate was evaporated to dryness and reconstituted with equal volume of 1 mM ammonium phosphate buffer (pH 7). The samples were then analyzed on a Sciex 6500+ LC-MS/MS instrument (Redwood City, CA). Analytes were eluted on a […] 50×2.0 mm Phenomenex Luna C18 HST column (Torrance, CA) using mobile phases containing 3 mM ammonium formate and 10 mM dimethylhexylamine and a linear gradient from 9% to 50% acetonitrile at a flow rate of 360 μL/min. Data acquisition and processing were accomplished using Sciex Analyst® Software. Total summed levels of GS-441524 phosphorylate metabolites (B+C+D) in lung tissues were generated from the sum of GS-441524 mono-, di- and tri-phosphate (B, C, and D respectively).

The structures appear in SMILES notation.

A word on the EC50: it is the concentration at which the effect is half-maximal. What is called CC50 is the concentration at which the toxic effect on the cells reaches its halfway point. High values mean lower toxicity to the cells, low ones greater toxicity to the cells. With `CCCCCCCCCCCCCCCCCCOC[C@H](COP(=O)(O)OC[C@H]1O[C@@](C#N)(c2ccc3c(N)ncnn23)[C@H](O)[C@@H]1O)Oc1cc(OC)c(C#N)c(OC)c1` [Example 34, ((2R,3S,4R,5R)-5-(4-aminopyrrolo[2,1-f][1,2,4]triazin-7-yl)-5-cyano-3,4-dihydroxytetrahydrofuran-2-yl)methyl ((R)-2-(4-cyano-3,5-dimethoxyphenoxy)-3-(octadecyloxy)propyl) hydrogen phosphate], the figures for the EC50 (in data set [1]; in the data set on SARS-CoV-2) were 11 nM and 43 nM, respectively. The same compound registered a CC50 at 48 h in “in vitro” of 10000 nM. Further, in data set [2], the midpoint of cytotoxicity, the CC50 at 5 days, lay at 460 nM. Further, the “Total Lung Phosphate Level (monophosphate + diphosphate + triphosphate, nmol/g)” value in data set [3] turned out to be 2.4 nmol/g.

For the compound `CCCCCCCCCCCCCCCCCCC[C@H](COP(=O)(O)OC[C@H]1O[C@@](C#N)(c2ccc3c(N)ncnn23)[C@H](O)[C@@H]1O)OCc1cc(F)cc(C#N)c1` [Example 35, ((2R,3S,4R,5R)-5-(4-aminopyrrolo[2,1-f][1,2,4]triazin-7-yl)-5-cyano-3,4-dihydroxytetrahydrofuran-2-yl)methyl ((R)-2-((3-cyano-5-fluorobenzyl)oxy)henicosyl) hydrogen phosphate], the figures for the concentration for a half-maximal effect (EC50) (in data set [1]; with SARS-CoV-2) were 95 nM and 570 nM, respectively. The compound also gave a half-maximal cytotoxic concentration (CC50) at 48 h in the data set “in vitro” of 16000 nM. In addition, it took 830 nM to reach half-maximal cytotoxicity in data set [2] (CC50 at 5 days). In addition, the “Total Lung Phosphate Level (monophosphate + diphosphate + triphosphate, nmol/g)” value in data set [3] was determined as 2.7 nmol/g.
